Assays:
B-Raf = B-Raf (Homo sapiens, UniProt P15056); assay: Kinase-Glo Plus RTK selectivity assay, B-Raf; assay type: biochemical; details: 10 μM ATP
Experimental: (§1) A 50 μL reaction mixture contains 40 mM Tris, pH 7.4, 10 mM MgCl2, 0.1 mg/ml BSA, 1 mM DTT, 10 μM ATP, kinase and substrate (0.2 mg/mL Poly(Glu, Tyr)/10 μM ATP). The test compounds were diluted in 10% DMSO and 5 μL of the dilution was added to a 50 μL reaction so that the final concentration of DMSO is 1% in all of reactions. The assay was performed using Kinase-Glo Plus luminescence kinase assay kit. It measures kinase activity by quantitating the amount of ATP remaining in solution following a kinase reaction. The luminescent signal from the assay is correlated with the amount of ATP present and is inversely correlated with the amount of kinase activity. The IC50 values were calculated using nonlinear regression with normalized dose−response fit using Prism GraphPad software.

[1] = system: human cervical cancer cell line (HeLa); assay: Anti-proliferative MTT assay, HeLa; assay type: cell-based; details: 48 h
Experimental: (§2) These RTKs play critical roles in the proliferation of various cancers. Therefore, RTKs inhibition generally translate well into anti-proliferation activity.
(§3) Exponentially growing cells were harvested and plated in 96-well plates at a concentration of 1×10^4 cells/well per well, and then were incubated at 37°C for 24 h. […] Subsequently, 22 μL fresh MTT (5 mg/mL) was added to each well and incubated at 37°C for 4 h. […] DMSO was added to each well after supernatant was discarded. Absorbance values were determined by a microplate reader (Bio-Rad Instruments) at 490 nm. The IC50 values were calculated according to inhibition ratios.

[2] = system: human embryonic kidney 293 (HEK293); assay: Cytotoxicity on normal cells, HEK293; assay type: cell-based; details: MTT, 48 h, read-out: Anti-proliferative activity IC50, HEK293 (normal cells)
Experimental: In order to determine the anti-angiogenic effect of these multi-target inhibitors, we evaluated their effect on HECs (EA.hy926) viability using cell counting kit-8 (CCK-8) method.
as §2, §3

VEGFR-1 = VEGFR-1 (Homo sapiens, UniProt P17948); assay: Kinase-Glo Plus RTK selectivity assay, VEGFR-1; assay type: biochemical; details: 10 μM ATP
Experimental: as §1

VEGFR-2 = assay: Western blot of VEGFR-2 level and phosphorylation in EA.hy926 cells; assay type: cell-based, human
Experimental: The expression and phosphorylation of VEGFR-2 in EA.hy926 cells were assessed using western blot analysis with various antibodies. […] Cell lysates containing equal amounts of protein were separated by SDS polyacrylamide gel electrophoresis and transferred to polyvinylidene difluoride membranes. After being blocked in 5% nonfat milk in Tris-buffered saline with 0.1% Tween 20, pH 7.6, the membranes were incubated with the appropriate primary antibodies at 4°C overnight and then exposed to secondary antibodies for 2 h at room temperature. Immunoreactive proteins were visualized using the enhanced chemiluminescence system from Pierce Chemical.

EphB4 = biological target: T1, EphB4 (Homo sapiens, UniProt P54760); assay: ADP-Glo in vitro RTK inhibition assay, EphB4; assay type: biochemical; details: ATP 50 μM
T1 sequence (P54760 16-987): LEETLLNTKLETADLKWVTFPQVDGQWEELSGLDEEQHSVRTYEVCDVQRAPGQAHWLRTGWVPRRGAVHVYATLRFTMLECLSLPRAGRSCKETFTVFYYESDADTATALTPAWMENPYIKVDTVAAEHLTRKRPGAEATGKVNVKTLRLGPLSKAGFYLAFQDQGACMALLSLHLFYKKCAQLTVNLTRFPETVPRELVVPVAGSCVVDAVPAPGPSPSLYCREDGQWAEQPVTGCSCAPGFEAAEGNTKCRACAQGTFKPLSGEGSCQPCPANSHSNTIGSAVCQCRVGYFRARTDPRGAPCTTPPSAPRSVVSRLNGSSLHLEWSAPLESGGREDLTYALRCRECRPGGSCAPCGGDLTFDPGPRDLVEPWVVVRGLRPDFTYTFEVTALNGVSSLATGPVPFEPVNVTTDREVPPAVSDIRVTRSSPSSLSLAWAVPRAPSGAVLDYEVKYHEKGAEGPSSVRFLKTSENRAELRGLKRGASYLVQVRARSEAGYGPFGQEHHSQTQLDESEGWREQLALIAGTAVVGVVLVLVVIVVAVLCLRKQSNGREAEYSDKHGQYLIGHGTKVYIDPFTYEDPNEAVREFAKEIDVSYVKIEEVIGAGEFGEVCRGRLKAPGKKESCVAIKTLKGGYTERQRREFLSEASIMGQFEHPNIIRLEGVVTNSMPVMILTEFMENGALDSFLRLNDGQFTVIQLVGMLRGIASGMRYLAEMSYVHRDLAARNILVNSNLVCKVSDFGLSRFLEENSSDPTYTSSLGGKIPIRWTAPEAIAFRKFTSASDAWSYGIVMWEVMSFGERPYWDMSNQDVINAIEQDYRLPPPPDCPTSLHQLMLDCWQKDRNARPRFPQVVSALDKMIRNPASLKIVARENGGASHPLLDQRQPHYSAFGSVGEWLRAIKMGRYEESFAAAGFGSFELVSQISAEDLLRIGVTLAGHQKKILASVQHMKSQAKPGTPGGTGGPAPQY
Experimental: In order to validate the direct effect of title compounds on VEGFR-2, Tie-2, and EphB4 kinases, we performed in vitro assay using the ADP-Glo Kinase Assay Kit (Promega, Wisconsin, USA).
The kinase assay was performed in a reaction mixture of final volume of 10 μL. […] The plate was incubated at 30°C for 1 h. After the plate was cooled at room temperature for 5 min, 5 μL of ADP-Glo reagent was added into each well to stop the reaction and consume the remaining […] within 40 min. At the end, 10 μL of kinase detection reagent was added into the well and incubated for 30 min to produce a luminescence signal. […] The assay plate was incubated at 30°C for 4 h. After the plate was cooled at room temperature for 5 min, 5 μL of ADP-Glo reagent was added into each well to stop the reaction and consume the remaining […] within 1 h. At the end, 10 μL of kinase detection reagent was added into each well and incubated for 30 min to produce a luminescence signal. The luminescence was read by VICTOR-X multi-label plate reader.

Chain of B-Raf (P15056 whole entry, species assumed): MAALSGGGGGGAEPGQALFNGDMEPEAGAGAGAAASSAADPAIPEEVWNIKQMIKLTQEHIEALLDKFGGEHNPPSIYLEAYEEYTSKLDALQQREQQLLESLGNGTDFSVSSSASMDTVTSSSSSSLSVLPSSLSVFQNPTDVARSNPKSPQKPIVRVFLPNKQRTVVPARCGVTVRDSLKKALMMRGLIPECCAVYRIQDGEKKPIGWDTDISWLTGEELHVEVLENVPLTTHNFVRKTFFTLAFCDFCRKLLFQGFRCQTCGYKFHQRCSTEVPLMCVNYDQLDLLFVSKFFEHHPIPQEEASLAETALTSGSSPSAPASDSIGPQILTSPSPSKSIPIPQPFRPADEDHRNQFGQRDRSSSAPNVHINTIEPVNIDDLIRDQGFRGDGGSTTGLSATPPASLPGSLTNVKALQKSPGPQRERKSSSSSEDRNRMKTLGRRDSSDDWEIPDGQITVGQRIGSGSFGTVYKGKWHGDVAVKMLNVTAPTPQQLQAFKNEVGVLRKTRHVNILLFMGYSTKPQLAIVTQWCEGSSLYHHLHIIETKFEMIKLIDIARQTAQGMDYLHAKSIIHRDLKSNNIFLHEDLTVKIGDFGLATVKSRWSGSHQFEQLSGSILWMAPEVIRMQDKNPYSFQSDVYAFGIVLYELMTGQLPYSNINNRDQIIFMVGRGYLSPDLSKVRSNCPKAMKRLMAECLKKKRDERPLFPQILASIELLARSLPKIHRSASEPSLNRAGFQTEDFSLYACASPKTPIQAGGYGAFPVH
Chain of VEGFR-1 (P17948 27-1338, species assumed): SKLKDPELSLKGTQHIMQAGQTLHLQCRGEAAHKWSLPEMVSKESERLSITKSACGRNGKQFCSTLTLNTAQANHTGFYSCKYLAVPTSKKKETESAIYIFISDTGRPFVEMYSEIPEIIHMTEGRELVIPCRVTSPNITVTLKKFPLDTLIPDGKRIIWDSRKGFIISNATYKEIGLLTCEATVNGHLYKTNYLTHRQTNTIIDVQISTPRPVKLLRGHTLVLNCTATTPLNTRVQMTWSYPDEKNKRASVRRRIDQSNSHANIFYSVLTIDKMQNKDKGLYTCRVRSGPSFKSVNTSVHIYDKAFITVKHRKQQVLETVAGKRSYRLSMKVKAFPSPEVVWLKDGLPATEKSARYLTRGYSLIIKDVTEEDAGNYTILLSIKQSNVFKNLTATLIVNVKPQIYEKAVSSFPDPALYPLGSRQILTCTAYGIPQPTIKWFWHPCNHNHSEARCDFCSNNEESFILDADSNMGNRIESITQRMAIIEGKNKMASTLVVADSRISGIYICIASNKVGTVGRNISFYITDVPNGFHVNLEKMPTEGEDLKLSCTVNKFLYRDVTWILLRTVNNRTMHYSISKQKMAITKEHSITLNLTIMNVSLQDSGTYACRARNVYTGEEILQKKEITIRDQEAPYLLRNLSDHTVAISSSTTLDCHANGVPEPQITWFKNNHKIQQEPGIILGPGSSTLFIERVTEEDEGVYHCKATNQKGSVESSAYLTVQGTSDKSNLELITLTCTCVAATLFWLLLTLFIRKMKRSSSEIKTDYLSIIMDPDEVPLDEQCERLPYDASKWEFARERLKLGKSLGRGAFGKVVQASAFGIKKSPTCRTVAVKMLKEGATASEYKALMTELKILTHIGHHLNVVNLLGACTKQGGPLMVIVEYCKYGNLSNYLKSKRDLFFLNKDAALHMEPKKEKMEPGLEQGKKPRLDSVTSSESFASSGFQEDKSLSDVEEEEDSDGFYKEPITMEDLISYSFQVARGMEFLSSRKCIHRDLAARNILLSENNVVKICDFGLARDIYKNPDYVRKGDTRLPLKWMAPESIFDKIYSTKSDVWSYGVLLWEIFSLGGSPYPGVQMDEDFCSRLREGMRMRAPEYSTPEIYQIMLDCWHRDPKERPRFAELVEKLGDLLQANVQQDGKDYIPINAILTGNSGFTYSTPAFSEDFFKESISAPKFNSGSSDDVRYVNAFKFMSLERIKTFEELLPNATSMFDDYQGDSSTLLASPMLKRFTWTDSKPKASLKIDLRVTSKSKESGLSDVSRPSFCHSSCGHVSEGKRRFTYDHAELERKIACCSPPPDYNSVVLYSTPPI

IC50 (B-Raf): > 500 nM
IC50 [1]: 5560 nM
IC50 (VEGFR-1): 192 nM
IC50 (EphB4): 3.21 nM
Compound: O=C(Nc1ccc(-c2ccc3c(=O)[nH]cnc3c2)cc1)Nc1ccc(F)c(F)c1 [QDAU5, 1-(3,4-difluorophenyl)-3-(4-(4-oxo-3,4-dihydroquinazolin-7-yl)phenyl)urea]
IC50 [2]: > 100000 nM
VEGF-induced tyrosine phosphorylation of VEGFR-2 (VEGFR-2; EA.hy926, 48 h, then 50 ng/mL VEGF for 10 min): dose-dependently decreased
level of VEGFR-2 (VEGFR-2; VEGF-stimulated EA.hy926, 48 h): moderately reduced

Reference: publication PMC5739597, “Discovery and evaluation of triple inhibitors of VEGFR-2, TIE-2 and EphB4 as anti-angiogenic and anti-cancer agents” (Oncotarget, 2017)
